Measured values as given in patent US20080096811A1, “[…] VPAC2 RECEPTOR PEPTIDE AGONISTS” (Eli Lilly and Company, published 2008).
*1 amine or outer side, *2 acyl side, *3 side chain or, on linkers, in order; H or OH if unused. Where a SMILES comes first, the peptide text is derived from it. Where no end group is shown, it is not given here. Side-chain parts run from the residue outwards. The star is where a group is joined. γGlu = O=C(O)[C@H](CCC(=O)[*:2])N[*:1]; Hydrocinnamoyl = O=C(CCc1ccccc1)*; Palmitoyl = CCCCCCCCCCCCCCCC(=O)*; Hexanoyl = CCCCCC(=O)*; Propionyl = CCC(=O)*; Bz = O=C(c1ccccc1)*

Experiments:
human VPAC2 [1] = biological target: T1, human VPAC2 (Homo sapiens, UniProt P41587); test: DiscoveRx cAMP in vitro potency, human VPAC2; format: cell-based
T1 construct: expressed in transfected cells
T1 sequence (P41587 24-438): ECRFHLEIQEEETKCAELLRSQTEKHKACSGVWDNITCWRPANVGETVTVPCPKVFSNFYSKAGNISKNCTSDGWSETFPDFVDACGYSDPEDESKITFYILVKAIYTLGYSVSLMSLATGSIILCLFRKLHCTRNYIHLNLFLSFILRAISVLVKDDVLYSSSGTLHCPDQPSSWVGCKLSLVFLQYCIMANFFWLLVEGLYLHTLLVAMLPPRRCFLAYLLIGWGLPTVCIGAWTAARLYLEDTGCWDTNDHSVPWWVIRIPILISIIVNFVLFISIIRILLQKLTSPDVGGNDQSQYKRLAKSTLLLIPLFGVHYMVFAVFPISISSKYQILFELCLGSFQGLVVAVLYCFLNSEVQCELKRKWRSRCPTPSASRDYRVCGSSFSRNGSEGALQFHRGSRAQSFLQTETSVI
Experimental: Also, the cells are washed twice. The cells are incubated in assay buffer plus IBMX for 15 minutes at room temperature. […] The stimuli are present for 30 minutes. Then, the assay buffer is gently removed. […] At day 3, the assay described above for the VPAC2 receptor cell line is performed.

human VPAC2 [2] = biological target: T1, human VPAC2; test: Alpha screen cAMP in vitro potency, human VPAC2; format: cell-based
Experimental: Alpha screen: Cells are washed in the culture flask once with PBS. Then, the cells are rinsed with enzyme free dissociation buffer. The dissociated cells are removed. The cells are then spun down and washed in stimulation buffer. For each data point, 50,000 cells suspended in stimulation buffer are used. To this buffer, Alpha screen acceptor beads are added along with the stimuli. This mixture is incubated for 60 minutes. Lysis buffer and Alpha screen donor beads are added and are incubated for 60 to 120 minutes. The Alpha screen signal (indicative of intracellular cAMP levels) is read in a suitable instrument (e.g. AlphaQuest from Perlin-Elmer). Steps including Alpha screen donor and acceptor beads are performed in reduced light.

human VPAC2 [3] = biological target: T1, human VPAC2; test: Filter binding assay, human VPAC2 membranes, 125I-labeled VIP tracer
Experimental: (§1) For this assay, the solutions and equipment include:
(§2) Presoak solution: 0.5% Polyethyleneamine in Aqua dest.
(§3) Buffer for flushing filter plates: 25 mM […] pH 7.4
(§4) Blocking buffer: 25 mM HEPES pH 7.4; 0.2% protease free BSA
(§5) Assay buffer: 25 mM HEPES pH 7.4; 0.5% protease free BSA
(§6) Dilution and assay plate: PS-Microplate, U form
(§7) Filtration Plate Multiscreen FB Opaque Plate; […] Type B Glasfiber filter
(§8) In order to prepare the filter plates, aspirate the presoak solution by vacuum filtration. Flush the plates twice with 200 μL flush buffer. Add 200 μL blocking buffer to the filter plate. The filter plate is then incubated […] for 1 hour at room temperature.
(§9) Fill the assay plate with 25 μL assay buffer, 25 μL membranes (2.5 μg) suspended in assay buffer, 25 μL compound (agonist) in assay buffer, and 25 μL tracer (about 40000 cpm) in assay buffer. Incubate the filled plate for 1 hour with shaking.
(§10) Conduct the transfer from assay plate to filter plate. Aspirate the blocking buffer by vacuum filtration and wash two times with flush buffer. Transfer 90 μL from the assay plate to the filter plate. Aspirate the 90 μL transferred from assay plate and wash three times with 200 μL flush buffer. Remove the plastic support. Dry for 1 hour at 60° C. Add 30 μL Microscint. Perform the count.

human VPAC1 = biological target: T2, human VPAC1 (Homo sapiens, UniProt P32241); test: Filter binding assay, human VPAC1 membranes, 125I-labeled VIP tracer; set-up: expressed in transfected cells
T2 sequence (P32241 31-457): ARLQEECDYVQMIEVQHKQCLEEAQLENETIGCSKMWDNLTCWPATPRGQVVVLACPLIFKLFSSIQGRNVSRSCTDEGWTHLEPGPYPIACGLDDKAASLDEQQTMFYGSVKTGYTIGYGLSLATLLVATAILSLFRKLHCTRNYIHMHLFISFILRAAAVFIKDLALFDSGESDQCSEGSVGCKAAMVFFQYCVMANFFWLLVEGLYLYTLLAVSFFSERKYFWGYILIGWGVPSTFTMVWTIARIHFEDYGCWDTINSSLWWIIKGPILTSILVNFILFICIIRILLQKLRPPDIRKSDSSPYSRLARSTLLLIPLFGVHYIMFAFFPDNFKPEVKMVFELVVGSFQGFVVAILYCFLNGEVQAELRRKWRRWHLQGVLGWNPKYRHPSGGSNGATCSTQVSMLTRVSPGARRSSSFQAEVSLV
Experimental: as §1, §2, §3, §4, §5, §6, §7, §8, §9, §10

human PAC1 = human PAC1 (Homo sapiens, UniProt P41586); test: biochemical
Experimental: as §1, §2, §3, §4, §5, §6, §7, §8, §9, §10

Chain of human PAC1 (P41586 21-468): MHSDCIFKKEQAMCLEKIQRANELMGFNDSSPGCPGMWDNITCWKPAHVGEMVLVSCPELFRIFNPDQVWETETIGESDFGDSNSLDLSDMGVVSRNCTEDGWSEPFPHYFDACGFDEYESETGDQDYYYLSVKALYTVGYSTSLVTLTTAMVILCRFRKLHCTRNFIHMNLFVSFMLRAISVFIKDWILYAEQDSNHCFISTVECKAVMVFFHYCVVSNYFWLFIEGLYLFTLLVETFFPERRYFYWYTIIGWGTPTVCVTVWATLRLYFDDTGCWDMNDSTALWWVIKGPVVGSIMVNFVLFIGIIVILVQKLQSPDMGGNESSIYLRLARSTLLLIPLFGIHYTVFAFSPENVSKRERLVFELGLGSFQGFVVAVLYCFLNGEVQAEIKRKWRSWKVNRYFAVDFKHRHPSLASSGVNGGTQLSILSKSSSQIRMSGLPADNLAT

Molecule	EC50 (human VPAC2 [1])	EC50 (human VPAC2 [2])	IC50 (human VPAC2 [3])	IC50 (human VPAC1)	IC50 (human PAC1)
CC[C@H](C)[C@H](NC(=O)[C@H](CO)NC(=O)[C@H](CCC(N)=O)NC(=O)[C@H](CC(C)C)NC(=O)[C@H](Cc1ccc(O)cc1)NC(=O)[C@H](CCCCN)NC(=O)[C@H](CCCCN)NC(=O)[C@H](C)NC(=O)[C@H](C)NC(=O)[C@@H](NC(=O)[C@H](CCC(N)=O)NC(=O)[C@H](CCCCN)NC(=O)[C@H](CCCNC(=N)N)NC(=O)[C@H](CC(C)C)NC(=O)[C@H](CCCNC(=N)N)NC(=O)[C@@H](NC(=O)[C@H](Cc1ccc(O)cc1)NC(=O)[C@H](CC(N)=O)NC(=O)[C@H](CC(=O)O)NC(=O)[C@@H](NC(=O)[C@H](Cc1ccccc1)NC(=O)[C@@H](NC(=O)[C@H](C)NC(=O)[C@H](CC(=O)O)NC(=O)[C@H](CO)NC(=O)[C@H](Cc1c[nH]cn1)NC(=O)c1ccccc1)C(C)C)[C@@H](C)O)[C@@H](C)O)C(C)C)C(=O)N[C@@H](CCCCN)C(=O)N[C@@H](CC(N)=O)C(=O)N[C@@H](CO)C(=O)N[C@@H](CCCNC(=N)N)C(=O)N[C@H](C(=O)N[C@@H](CO)C(=O)N1CCC[C@H]1C(=O)N1CCC[C@H]1C(=O)N1CCC[C@H]1C(N)=O)[C@@H](C)O [Agonist P91] (Bz-HSDAVFTDNYTRLRKQVAAKKYLQSIKNSRTSPPP-NH2)	0.76 nM	1.9 nM	0.21 nM	58.2 nM	
CCCCCCCCCCCCCCCC(=O)N[C@@H](CCC(=O)NCCCC[C@H](NC(=O)[C@@H]1CCCN1C(=O)[C@@H]1CCCN1C(=O)[C@@H]1CCCN1C(=O)[C@H](CO)NC(=O)[C@@H](NC(=O)[C@H](CCCNC(=N)N)NC(=O)[C@H](CO)NC(=O)[C@H](CC(N)=O)NC(=O)[C@H](CCCCN)NC(=O)[C@@H](NC(=O)[C@H](CO)NC(=O)[C@H](CCC(N)=O)NC(=O)[C@H](CC(C)C)NC(=O)[C@H](Cc1ccc(O)cc1)NC(=O)[C@H](CCCCN)NC(=O)[C@H](CCCCN)NC(=O)[C@H](C)NC(=O)[C@H](C)NC(=O)[C@@H](NC(=O)[C@H](CCC(N)=O)NC(=O)[C@H](CCCCN)NC(=O)[C@H](CCCNC(=N)N)NC(=O)[C@H](CC(C)C)NC(=O)[C@H](CCCNC(=N)N)NC(=O)[C@@H](NC(=O)[C@H](Cc1ccc(O)cc1)NC(=O)[C@H](CC(N)=O)NC(=O)[C@H](CC(=O)O)NC(=O)[C@@H](NC(=O)[C@H](Cc1ccccc1)NC(=O)[C@@H](NC(=O)[C@H](C)NC(=O)[C@H](CC(=O)O)NC(=O)[C@H](CO)NC(=O)[C@H](Cc1c[nH]cn1)NC(=O)CC)C(C)C)[C@@H](C)O)[C@@H](C)O)C(C)C)[C@@H](C)CC)[C@@H](C)O)C(N)=O)C(=O)O [Agonist P95] (Propionyl-HSDAVFTDNYTRLRKQVAAKKYLQSIKNSRTSPPPK([γGlu-Palmitoyl])-NH2)	0.45 nM	0.24 nM	21.6 nM	203 nM	
CC[C@H](C)[C@H](NC(=O)[C@H](CO)NC(=O)[C@H](CCC(N)=O)NC(=O)[C@H](CC(C)C)NC(=O)[C@H](Cc1ccc(O)cc1)NC(=O)[C@H](CCCCN)NC(=O)[C@H](CCCCN)NC(=O)[C@H](C)NC(=O)[C@H](C)NC(=O)[C@@H](NC(=O)[C@H](CCC(N)=O)NC(=O)[C@H](CCCCN)NC(=O)[C@H](CCCNC(=N)N)NC(=O)[C@H](CC(C)C)NC(=O)[C@H](CCCNC(=N)N)NC(=O)[C@@H](NC(=O)[C@H](Cc1ccc(O)cc1)NC(=O)[C@H](CC(N)=O)NC(=O)[C@H](CC(=O)O)NC(=O)[C@@H](NC(=O)[C@H](Cc1ccccc1)NC(=O)[C@@H](NC(=O)[C@H](C)NC(=O)[C@H](CC(=O)O)NC(=O)[C@H](CO)NC(=O)[C@H](Cc1c[nH]cn1)NC(=O)CCc1ccccc1)C(C)C)[C@@H](C)O)[C@@H](C)O)C(C)C)C(=O)N[C@@H](CCCCN)C(=O)N[C@@H](CC(N)=O)C(=O)N[C@@H](CO)C(=O)N[C@@H](CCCNC(=N)N)C(=O)N[C@H](C(=O)N[C@@H](CO)C(=O)N1CCC[C@H]1C(=O)N1CCC[C@H]1C(=O)N1CCC[C@H]1C(N)=O)[C@@H](C)O [Agonist P90] (Hydrocinnamoyl-HSDAVFTDNYTRLRKQVAAKKYLQSIKNSRTSPPP-NH2)	1.7 nM	4.01 nM	0.82 nM	65 nM	
CCCCCC(=O)N[C@@H](Cc1c[nH]cn1)C(=O)N[C@@H](CO)C(=O)N[C@@H](CC(=O)O)C(=O)N[C@@H](C)C(=O)N[C@H](C(=O)N[C@@H](Cc1ccccc1)C(=O)N[C@H](C(=O)N[C@@H](CC(=O)O)C(=O)N[C@@H](CC(N)=O)C(=O)N[C@@H](Cc1ccc(O)cc1)C(=O)N[C@H](C(=O)N[C@@H](CCCNC(=N)N)C(=O)N[C@@H](CC(C)C)C(=O)N[C@@H](CC(C)C)C(=O)N[C@@H](CC(C)C)C(=O)N[C@@H](CCCCN)C(=O)N[C@H](C(=O)N[C@@H](C)C(=O)N[C@@H](C)C(=O)N[C@@H](CCCCN)C(=O)N[C@@H](CCCCN)C(=O)N[C@@H](Cc1ccc(O)cc1)C(=O)N[C@@H](CC(C)C)C(=O)N[C@@H](CCC(N)=O)C(=O)N[C@@H](CO)C(=O)N[C@H](C(=O)N[C@@H](CCCCN)C(=O)N[C@@H](CC(N)=O)C(=O)N[C@@H](CO)C(=O)N[C@@H](CCCNC(=N)N)C(=O)N[C@H](C(=O)N[C@@H](CO)C(=O)N1CCC[C@H]1C(=O)N1CCC[C@H]1C(=O)N1CCC[C@H]1C(N)=O)[C@@H](C)O)[C@@H](C)CC)C(C)C)[C@@H](C)O)[C@@H](C)O)C(C)C [Agonist P156] (Hexanoyl-HSDAVFTDNYTRLLLKVAAKKYLQSIKNSRTSPPP-NH2)		0.29 nM	0.42 nM	93.3 nM	8290 nM
HSDAVFTDNYTRLRKQAAAKKYLQSIKNSRTSPPP-NH2 [Agonist P96]		0.9 nM	0.58 nM	89.3 nM	151 nM
CCCCCC(=O)N[C@@H](Cc1c[nH]cn1)C(=O)N[C@@H](CO)C(=O)N[C@@H](CC(=O)O)C(=O)N[C@@H](C)C(=O)N[C@H](C(=O)N[C@@H](Cc1ccccc1)C(=O)N[C@H](C(=O)N[C@@H](CC(=O)O)C(=O)N[C@@H](CCC(N)=O)C(=O)N[C@@H](Cc1ccc(O)cc1)C(=O)N[C@H](C(=O)N[C@@H](CCCNC(=N)N)C(=O)N[C@@H](CC(C)C)C(=O)N[C@@H](CCCNC(=N)N)C(=O)N[C@@H](CCCCN)C(=O)N[C@@H](CCC(N)=O)C(=O)N[C@H](C(=O)N[C@@H](C)C(=O)N[C@@H](C)C(=O)N[C@@H](CCCCN)C(=O)N[C@@H](CCCCN)C(=O)N[C@@H](Cc1ccc(O)cc1)C(=O)N[C@@H](CC(C)C)C(=O)N[C@@H](CCC(N)=O)C(=O)N[C@@H](CO)C(=O)N[C@H](C(=O)N[C@@H](CCCCN)C(=O)N[C@@H](CCC(N)=O)C(=O)N[C@@H](CO)C(=O)N[C@@H](CCCNC(=N)N)C(=O)N[C@H](C(=O)N[C@@H](CO)C(=O)N1CCC[C@H]1C(=O)N1CCC[C@H]1C(=O)N1CCC[C@H]1C(N)=O)[C@@H](C)O)[C@@H](C)CC)C(C)C)[C@@H](C)O)[C@@H](C)O)C(C)C [Agonist P157] (Hexanoyl-HSDAVFTDQYTRLRKQVAAKKYLQSIKQSRTSPPP-NH2)		0.06 nM	0.14 nM	30.6 nM	222 nM
